In patent US12202790B2, “Sulfonamide derivatives having selective Nox inhibiting activity” (GLUCOX BIOTECH AB, priority 2018, dated 2025):

Experiments:
[1] = molecular target: hNox4 (Homo sapiens (Human), UniProt Q9NPH5); experiment: Amplex Red assay of intact Nox4 expressing HEK293 cells; format: cell-based; settings: read-out: IC50 Nox4
Protocol: (§1) HEK293 overexpressing Nox4 (CJ Nox4) cells were purchased from Redoxis, Lund, Sweden. HEK 293 cells expressing Nox5, Nox3 (HEK TRex) and CHO cells expressing Nox1, were a kind gift from Vincent Jaque Center Medical Universitaire, Geneva, Switzerland. Nox2 expressed in isolated neutrophils were isolated from whole blood (human), as previously described (Anvari E, et al., Free Radic Res 2015; 49:1308-1318).
HEK293 cells (CJ Nox4) were cultured in RPMI 1640 with Glutamax supplemented with FBS (10%), penicillin (100 U/ml) and streptomycin […] at 37° C. in air with 5% CO2. Every third passage 200 µg/ml neomycin were supplied in growth medium as selective agent.
(§2) Reactive oxygen produced in whole cells or in membrane preparation of Nox1, Nox3, Nox4, Nox5 and xanthine oxidase and glucose oxidase were determined using Amplex Red as detection probe of formed H2O2. Amplex Red (10-acetyl-3,7-dihydroxyphenoxazine) in combination with HRP and co-factors reacts with H2O2 in a 1:1 stoichiometry to form a highly fluorescent resorufin excitated at 544 nm producing emission at 590 nm.
(§3) Adherent cells (CHO, HEK) were collected by trypsinization, centrifuged, washed with HBSS, counted, and resuspended in HBSS. Cells were seeded in 96-well black flat bottom plates at a density of 50,000-100,000 cells/well. All compounds were dissolved in DMSO and concentrations ranging from 0.003 to 200 μM were tested in Nox cellular assays with a final concentration of DMSO of 1%. Cells were incubated at 37° C. with the compounds for 30 minutes before measurement. Cells expressing Nox1 and Nox2 were activated with the PKC activator PMA (0.1 μM). Nox5 was activated with the Ca2+ ionophore ionomycin (1 μM) and further enforced with PMA. The CJ HEK 293 cells overexpressed Nox4 constitutively. In the HTS screen HEK 293 TRex was used and tetracycline ([…]) was added 18 h before measurement to induce Nox4 expression. Production of hydrogen peroxide by Nox in intact cells was measured using Amplex Red fluorescence as described by Jaquet V, et al., Br J Pharmacol 2011; 164:507-520. Assay reagents including HRP ([…]) and Amplex Red (50 μM) were added to initiate production of hydrogen peroxide. Fluorescence was read in a fluorescence plate reader at 37° C. every minute between 30-60 minutes.

[2] = molecular target: Nox1 (Homo sapiens (Human), UniProt Q9Y5S8); experiment: Amplex Red assay of Nox1 expressing CHO cells; format: cell-based; design: key to IC50 Nox1: The sign “—” stands for “inactive”
Protocol: as §1
CHO cells expressing Nox1 were cultured in DMEM 12 medium (DMEM/F12) supplemented with FBS (10%), penicillin (100 U/ml) and streptomycin (100 μg/ml) at 37° C. in air with 5% CO2.
as §2, §3

[3] = molecular target: Nox2 (Homo sapiens (Human), UniProt P04839); experiment: Nox2 inhibition in human neutrophils, isoluminol-dependent chemiluminescence; format: cell-based; design: key to IC50 Nox2: The sign “—” stands for “inactive”; settings: PMA stimulated human neutrophils
Protocol: as §1
Compounds of the invention were tested for selectivity against Nox2 in isolated neutrophils from whole blood (human), as previously described (Anvari E, et al., vide supra). Levels of ROS from PMA stimulated primary human neutrophils were measured using isoluminol-dependent chemiluminescence. […] The dye is excited by ROS and the light emitted when the excited molecules return to the ground state, relative to the amount of released ROS, is measured. This reaction is catalyzed and amplified by peroxidases. […] Compounds of the invention and GKT136901 were diluted at 4× working concentration and titrated from 100 μM to 0.006 μM in 1:4 steps as final concentrations. DPI was diluted in isoluminol buffer at 4× working concentration titrated from 10 μM to 0.0006 μM as final concentrations. PMA was diluted in isoluminol buffer at 4× working concentration for a final concentration of 30 ng/ml. […] Luminescence was detected using FluoStar Optima (BMG, Labtech). The isoluminol buffer was prepared immediately prior to addition to test plate. The buffer contained HRP fraction with or without PMA (30 ng/ml). Stock solutions at 6 μg/ml (PMA in HBSS), 3 μg/ml (PMA in DMSO) and 24 mM (DPI) were used and further diluted at the day of analysis to 4× working concentrations in HBSS with or without DMSO.

[4] = molecular target: Nox5 (Homo sapiens (Human), UniProt Q96PH1); experiment: Amplex Red assay of Nox5 expressing HEK cells; format: cell-based; design: key: The sign “—” stands for “inactive”
From the text: as §1
HEK293T cells expressing tetracycline-inducible human (Nox3 or Nox4) and HEK293 cells stably expressing human Nox5 were generated as described previously (Serrander et al., 2007a,b). HEK cells were cultured in Dulbecco's modified Eagle medium (DMEM) with 4.5 g/l glucose, supplemented with FBS (10%), penicillin (100 U/ml) and streptomycin […] at 37° C. in air with 5% CO2.
as §2, §3

[5] = molecular target: xanthine oxidase (Bos taurus (Bovine), UniProt P80457); experiment: Amplex Red xanthine oxidase (XO) assay; format: biochemical; design: key: The sign “—” stands for “inactive”
Protocol: as §2
The assay was designed for Amplex Red analysis of production of hydrogen peroxide. Test compounds were incubated with 5 mU/ml bovine derived xanthine oxidase for 15 min at room temperature followed by the addition of substrate and detection mix (final concentrations of 0.2 U/ml HRP, 5 μM hypoxanthine, and 50 μM Amplex Red). As described by Hirano K et al., Antioxid Redox Signal 2015 10; 23:358-374, production of hydrogen peroxide was followed by fluorescence detection during 30 min at 37° C. in a plate reader that use excitation at 544 nm producing emission at 590 nm.

[6] = DPPH redox assay; design: key: The sign “—” stands for “inactive”; settings: redox activity control
Protocol: DPPH, a well-known sensitive chemical of monitoring reactions involving radicals described by Xiong Q, et al., Biol Pharm Bull 1996; 19:1580-1585, was used as control to exclude any redox active compound. DPPH was incubated with decreasing concentrations (200-0.003 μM) of compounds of the invention or prior art compound GKT136901 (as a positive control). The plate was kept in the dark for 60 min, after which the absorbance of the solution was measured at 518 nm.

[7] = test system: Human islet cells; experiment: Effects on human islet cell viability; format: cell-based; settings: 48 h, inhibitor 2 μM; for human islet cell death with cytokines: IL-1β (20 ng/ml)+IFN-γ (20 ng/ml); for human islet cell death with high glucose+palmitate: palmitate (1.5 mM)+high glucose (20 mM)
Protocol: Human islet cells were incubated at control condition, with the cytokines IL-1β (20 ng/ml)+IFN-γ (20 ng/ml), or with palmitate (1.5 mM+2% BSA)+high glucose (20 mM) (PH) for 2 days with or without Nox1 inhibitor ML-171 (2 μM), Nox2 inhibitor Phos-I2 (2 μM) or Example 17 (1 μM). Islets were photographed in an inverted fluorescence microscope and the intensities of red (PI) and blue (Bisbenzimide) signals were quantified using Image J software. Results are indicated as mean±S.E.M for 7 human islet donors.

Nox5, sequence (Q96PH1 whole entry): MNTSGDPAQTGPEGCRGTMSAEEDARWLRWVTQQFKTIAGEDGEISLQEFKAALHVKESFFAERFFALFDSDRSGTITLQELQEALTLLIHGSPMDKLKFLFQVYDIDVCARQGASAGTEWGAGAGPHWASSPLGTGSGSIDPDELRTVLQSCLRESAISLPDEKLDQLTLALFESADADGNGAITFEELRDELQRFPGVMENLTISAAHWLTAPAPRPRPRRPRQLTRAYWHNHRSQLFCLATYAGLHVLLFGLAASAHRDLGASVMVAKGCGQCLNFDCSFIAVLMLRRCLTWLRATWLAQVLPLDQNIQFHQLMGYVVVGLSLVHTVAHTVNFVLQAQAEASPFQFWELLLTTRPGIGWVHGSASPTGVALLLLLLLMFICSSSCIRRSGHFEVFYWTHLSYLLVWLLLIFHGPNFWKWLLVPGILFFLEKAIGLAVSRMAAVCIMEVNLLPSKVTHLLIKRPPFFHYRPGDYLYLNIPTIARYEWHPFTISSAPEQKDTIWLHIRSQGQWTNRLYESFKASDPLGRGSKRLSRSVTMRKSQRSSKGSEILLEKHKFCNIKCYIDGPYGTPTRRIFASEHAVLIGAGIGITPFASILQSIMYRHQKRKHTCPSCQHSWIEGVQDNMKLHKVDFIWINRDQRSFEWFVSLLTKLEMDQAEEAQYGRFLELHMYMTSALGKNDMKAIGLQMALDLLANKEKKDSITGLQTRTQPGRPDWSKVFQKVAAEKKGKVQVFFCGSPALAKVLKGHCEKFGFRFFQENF
Nox1, sequence (Q9Y5S8 whole entry): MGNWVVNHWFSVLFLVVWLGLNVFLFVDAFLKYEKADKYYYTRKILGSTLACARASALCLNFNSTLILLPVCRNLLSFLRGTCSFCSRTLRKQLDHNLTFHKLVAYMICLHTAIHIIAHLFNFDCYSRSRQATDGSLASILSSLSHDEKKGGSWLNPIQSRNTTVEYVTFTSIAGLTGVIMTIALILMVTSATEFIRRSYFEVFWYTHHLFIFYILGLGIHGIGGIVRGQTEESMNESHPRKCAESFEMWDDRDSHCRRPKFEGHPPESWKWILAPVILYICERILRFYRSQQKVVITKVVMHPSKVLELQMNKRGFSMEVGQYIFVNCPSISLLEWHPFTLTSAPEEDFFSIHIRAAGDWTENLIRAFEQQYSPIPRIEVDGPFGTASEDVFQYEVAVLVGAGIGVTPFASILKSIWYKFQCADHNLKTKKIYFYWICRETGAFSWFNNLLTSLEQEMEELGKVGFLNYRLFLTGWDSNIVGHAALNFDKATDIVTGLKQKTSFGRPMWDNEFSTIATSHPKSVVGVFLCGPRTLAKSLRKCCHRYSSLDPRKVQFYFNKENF
Nox1, sequence (P13498 2-195 partner): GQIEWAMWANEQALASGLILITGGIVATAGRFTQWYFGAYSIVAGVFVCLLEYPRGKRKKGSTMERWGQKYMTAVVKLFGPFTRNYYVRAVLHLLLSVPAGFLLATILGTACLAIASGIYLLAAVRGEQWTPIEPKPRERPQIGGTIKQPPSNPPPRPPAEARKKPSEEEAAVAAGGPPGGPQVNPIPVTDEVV
hNox4, sequence (Q9NPH5 whole entry): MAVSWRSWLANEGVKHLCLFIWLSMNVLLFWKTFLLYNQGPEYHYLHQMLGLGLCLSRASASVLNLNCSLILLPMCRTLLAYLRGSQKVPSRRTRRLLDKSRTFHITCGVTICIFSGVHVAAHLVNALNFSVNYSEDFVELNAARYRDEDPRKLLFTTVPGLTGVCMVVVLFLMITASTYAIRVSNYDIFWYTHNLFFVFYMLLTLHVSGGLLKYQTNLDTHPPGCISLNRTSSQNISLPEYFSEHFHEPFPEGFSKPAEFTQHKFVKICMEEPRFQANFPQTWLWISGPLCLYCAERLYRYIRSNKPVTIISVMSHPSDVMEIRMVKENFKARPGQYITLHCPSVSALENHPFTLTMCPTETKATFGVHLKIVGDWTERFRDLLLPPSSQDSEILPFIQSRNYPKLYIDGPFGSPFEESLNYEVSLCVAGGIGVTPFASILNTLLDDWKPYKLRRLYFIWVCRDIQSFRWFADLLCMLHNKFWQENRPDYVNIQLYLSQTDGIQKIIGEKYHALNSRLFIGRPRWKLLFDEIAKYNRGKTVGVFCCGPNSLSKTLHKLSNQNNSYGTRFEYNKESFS
hNox4, sequence (P13498 2-195 partner): as the sequence (P13498 2-195 partner) above
Nox2, sequence (P04839 2-570): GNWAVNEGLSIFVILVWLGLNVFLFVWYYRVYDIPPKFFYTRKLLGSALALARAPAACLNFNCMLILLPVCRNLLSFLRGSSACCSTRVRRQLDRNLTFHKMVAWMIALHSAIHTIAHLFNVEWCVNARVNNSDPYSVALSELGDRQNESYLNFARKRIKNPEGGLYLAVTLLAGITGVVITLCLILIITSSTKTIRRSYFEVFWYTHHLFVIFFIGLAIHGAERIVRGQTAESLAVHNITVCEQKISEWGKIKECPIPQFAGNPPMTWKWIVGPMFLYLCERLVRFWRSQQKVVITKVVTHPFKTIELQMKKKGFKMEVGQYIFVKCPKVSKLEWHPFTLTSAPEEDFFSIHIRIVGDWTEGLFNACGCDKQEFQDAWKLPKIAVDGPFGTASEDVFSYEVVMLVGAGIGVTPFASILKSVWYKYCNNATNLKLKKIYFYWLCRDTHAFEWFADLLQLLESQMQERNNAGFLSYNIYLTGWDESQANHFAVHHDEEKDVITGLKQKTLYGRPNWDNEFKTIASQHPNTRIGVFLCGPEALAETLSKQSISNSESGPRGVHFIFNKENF
Nox2, sequence (P13498 2-195 partner): as the sequence (P13498 2-195 partner) above
xanthine oxidase, sequence (P80457 whole entry): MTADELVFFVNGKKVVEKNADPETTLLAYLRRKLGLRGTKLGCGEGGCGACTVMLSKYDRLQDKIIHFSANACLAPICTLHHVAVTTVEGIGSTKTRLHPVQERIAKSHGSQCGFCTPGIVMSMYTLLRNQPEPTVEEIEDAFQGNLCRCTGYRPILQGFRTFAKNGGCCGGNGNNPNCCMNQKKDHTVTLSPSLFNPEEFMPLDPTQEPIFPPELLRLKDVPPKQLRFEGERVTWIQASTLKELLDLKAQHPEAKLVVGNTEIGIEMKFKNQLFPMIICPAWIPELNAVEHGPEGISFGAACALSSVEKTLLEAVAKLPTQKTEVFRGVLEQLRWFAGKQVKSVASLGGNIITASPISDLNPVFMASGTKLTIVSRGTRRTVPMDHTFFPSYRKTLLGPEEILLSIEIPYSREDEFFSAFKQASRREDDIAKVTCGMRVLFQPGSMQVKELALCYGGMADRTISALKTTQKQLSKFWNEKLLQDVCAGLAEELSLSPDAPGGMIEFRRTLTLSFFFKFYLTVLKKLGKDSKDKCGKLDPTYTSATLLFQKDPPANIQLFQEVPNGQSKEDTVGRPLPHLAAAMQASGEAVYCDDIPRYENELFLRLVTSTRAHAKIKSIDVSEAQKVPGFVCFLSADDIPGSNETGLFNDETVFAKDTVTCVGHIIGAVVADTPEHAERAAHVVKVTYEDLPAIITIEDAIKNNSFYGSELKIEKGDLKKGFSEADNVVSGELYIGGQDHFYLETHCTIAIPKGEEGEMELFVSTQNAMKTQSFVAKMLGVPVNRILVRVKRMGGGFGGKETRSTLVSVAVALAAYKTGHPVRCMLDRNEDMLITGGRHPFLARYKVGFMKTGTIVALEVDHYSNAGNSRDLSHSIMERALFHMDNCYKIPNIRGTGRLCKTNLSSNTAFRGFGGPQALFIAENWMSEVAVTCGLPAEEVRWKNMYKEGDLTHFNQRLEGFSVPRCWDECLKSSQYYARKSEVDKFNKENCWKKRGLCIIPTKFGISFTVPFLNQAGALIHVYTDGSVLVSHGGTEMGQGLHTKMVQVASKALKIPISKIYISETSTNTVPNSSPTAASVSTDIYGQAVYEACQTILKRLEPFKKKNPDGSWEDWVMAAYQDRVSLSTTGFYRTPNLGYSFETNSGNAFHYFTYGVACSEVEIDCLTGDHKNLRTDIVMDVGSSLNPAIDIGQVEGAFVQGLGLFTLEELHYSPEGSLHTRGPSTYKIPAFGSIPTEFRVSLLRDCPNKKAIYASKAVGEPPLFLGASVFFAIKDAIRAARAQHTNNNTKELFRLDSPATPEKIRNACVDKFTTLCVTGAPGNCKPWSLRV

SMILES | IC50 [1] | IC50 Nox1 [2] | IC50 Nox2 [3] | IC50 Nox5 [4] | IC50 XO [5] | IC50 DPPH [6] | human islet cell death with cytokines [7] | human islet cell death with high glucose+palmitate [7] | IC50 [2] | IC50 [3]
Cc1c(C)c(S(=O)(=O)NCCc2ccccc2Cl)c(C)c2c1OC(C)(C)C2 [Example 9, N-[2-(2-chlorophenyl)ethyl]-2,2,4,6,7-pentamethyl-2,3-dihydro-1-benzofuran-5-sulfonamide] | 1.6 µM | — | — | — | — | — |  |  |  | 
Cc1ccccc1C(F)CNS(=O)(=O)c1c(Cl)cc(Br)cc1Cl (single isomer, unassigned) [Example 35 (isomer 1), 4-bromo-2,6-dichloro-N-[2-fluoro-2-(2-methylphenyl)ethyl]benzene-1-sulfonamide] | 1.7 µM | — | — | — | — | — |  |  |  | 
Cc1ccccc1C(F)CNS(=O)(=O)c1c(Cl)cc(Br)cc1Cl (single isomer, unassigned) [Example 35 (isomer 2), 4-bromo-2,6-dichloro-N-[2-fluoro-2-(2-methylphenyl)ethyl]benzene-1-sulfonamide] | 4.9 µM | — | — | — | — | — |  |  |  | 
Cc1cc(C)c(S(=O)(=O)NCCc2ccccc2F)c(C)c1 [Example 2, N-[2-(2-fluorophenyl)ethyl]-2,4,6-trimethylbenzene-1-sulfonamide] | 2.2 µM | — | — | — | — | — |  |  |  | 
O=[N+]([O-])c1cccc(C2Nc3ccc([N+](=O)[O-])cc3C3C=CCC32)c1 (stereo not shown) [Phox-I2] |  |  |  |  |  |  | failed to protect human islets against cytokines | partially protected against high glucose+palmitate |  | 
CC(=O)c1ccc2c(c1)Nc1ccccc1S2 [ML171] |  |  |  |  |  |  | failed to reduce human islet cell death | failed to reduce human islet cell death |  | 
Cc1cc(C)c(S(=O)(=O)NCCc2ccccc2Cl)c(C)c1 [Example 6, N-[2-(2-chlorophenyl)ethyl]-2,4,6-trimethylbenzene-1-sulfonamide] | 0.27 µM | — | — | — | — | — |  |  |  | 
Cc1c2c(=O)n(-c3ccccc3Cl)[nH]c2cc(=O)n1Cc1ccccn1 [GKT136901, 2-(2-Chlorophenyl)-4-methyl-5-(pyridin-2-ylmethyl)-1H-pyrazolo[4,3-c]pyridine-3,6-dione, reference compound] | 1.6 µM |  |  |  |  | active |  |  | 0.5 µM | 9 µM
O=S(=O)(NCCc1ccccc1Cl)c1c(Cl)cc(C(F)(F)F)cc1Cl [Example 27, 2,6-dichloro-N-[2-(2-chlorophenyl)ethyl]-4-(trifluoromethyl)benzene-1-sulfonamide] | 1.6 µM | — |  | — | — | — |  |  |  | 
Cc1cc(C)c(S(=O)(=O)NCCc2ccccc2Br)c(C)c1 [Example 7, N-[2-(2-bromophenyl)ethyl]-2,4,6-trimethylbenzene-1-sulfonamide] | 0.27 µM | — | — | — | — |  |  |  |  | 
O=S(=O)(NCCc1ccccc1Cl)c1c(Cl)cc(Br)cc1Cl [Example 20, 4-bromo-2,6-dichloro-N-[2-(2-chlorophenyl)ethyl]benzene-1-sulfonamide] | 0.9 µM | — |  | — | — | — |  |  |  | 
Cc1cc(C)c(S(=O)(=O)NCCc2ccccc2C)c(C)c1 [Example 14, 2,4,6-trimethyl-N-[2-(2-methylphenyl)ethyl]benzene-1-sulfonamide] | 0.09 µM | — | — | — | — | — |  |  |  | 
O=S(=O)(NCCc1ccccc1F)c1c(Cl)cc(C2CC2)cc1Cl [Example 25, 2,6-dichloro-4-cyclopropyl-N-[2-(2-fluorophenyl)ethyl]benzene-1-sulfonamide] | 1.1 µM | — |  | — | — | — |  |  |  | 
